Results: patent US20020146823A1, “Method for promoting hematopoietic and mesenchymal cell proliferation and differentiation” (The University of Southern California, priority 1997, published 2002)

Columns and labels:
AT2 receptor = biological target: T1, AT2 receptor (Homo sapiens, UniProt P50052); details: cited from earlier work
T1 sequence (P50052 1-363): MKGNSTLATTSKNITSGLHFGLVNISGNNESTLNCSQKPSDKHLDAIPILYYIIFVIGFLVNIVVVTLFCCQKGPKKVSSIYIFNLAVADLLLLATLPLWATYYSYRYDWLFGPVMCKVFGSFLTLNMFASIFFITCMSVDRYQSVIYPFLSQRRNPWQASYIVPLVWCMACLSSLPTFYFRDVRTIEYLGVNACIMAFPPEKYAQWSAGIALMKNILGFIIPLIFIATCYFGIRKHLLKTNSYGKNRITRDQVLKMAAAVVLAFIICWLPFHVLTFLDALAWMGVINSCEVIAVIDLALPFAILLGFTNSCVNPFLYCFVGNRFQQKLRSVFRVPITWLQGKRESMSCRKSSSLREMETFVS

human PBMC = assay: Proliferative response of human lymphocytes (3H-thymidine incorporation); format: cell-based; details: absence of mitogen
Experimental: Upon stimulation of lymphocytes with mitogen or antigen, these cells undergo blastogenesis and proliferation. In the absence of such stimuli, proliferation is seldom observed. One method to measure cellular proliferation in a short term assay is via measurement of the amount of the nucleotide thymidine that is incorporated into newly synthesized DNA. The effect of All on the proliferation of human PBMC in the presence and absence of pokeweed mitogen (“PWM”) was assessed.
Human PBMC were collected from normal volunteers and isolated via Ficoll Hypaque (Sigma Chemical, St. Louis) density centrifugation. After isolation of the buffy coat, the cells were washed 3× to remove the Ficoll Hypaque, counted in trypan blue (0.01%) and resuspended at a concentration of 1×10^6 cells/ml in RPMI 1640 containing 10% fetal calf serum and antibiotics. A 100 μl aliquot of cells was added to each well. Thereafter, various concentrations (0.1 to 1000 μg/ml final concentration) of AII in RPMI 1640 containing 10% FCS and antibiotics were added to various wells in triplicate. To the appropriate wells, PWM (20 μg/ml final concentration) was added. These plates were incubated at 37° C. in 5% CO2 for 48 hours. […] These filters were dried, placed in scintillation fluid and the amount of thymidine incorporated was determined by beta counting.

[1] = system: murine mesenchymal stem cells; assay: GM-CSF secretion by mouse mesenchymal stem cells (ELISA); format: cell-based, C57B1/6 mice; details: 0.01 to 100 μg/ml; 24, 48 or 72 hours
Experimental: One factor whose production is induced during differentiation of mesenchymal stromal cells is granulocyte-macrophage-colony stimulating factor (GM-CSF). Therefore, the effect of AII on the differentiation of mesenchymal cells was assessed by the production of colony stimulating factors, specifically GM-CSF, into the culture supernatant.
Bone marrow cells were harvested from the femur and tibia of C57B1/6 mice (Battin and Kingdom, Gilroy, Calif.) with saline containing 2% fetal calf serum. Thereafter, the red blood cells were lysed by brief exposure to a hypotonic ammonium chloride solution. The nucleated cells were then resuspended in 3 ml of […] phosphate buffered saline (PBS; pH 7.2) and rapidly layered over 7 ml of Percoll (70% Percoll gradient separation). This combination of nucleated bone marrow cells and Percoll were centrifuged at 1800 rpm for 20 minutes. After centrifugation, the cells in the upper 25% of the Percoll gradient were harvested and washed 3 times with PBS to remove excess Percoll. The cells were then resuspended at 4×10^5 cells/ml in alpha minimal essential medium containing 10% horse serum, 10% fetal calf serum and 5×10^−5 M 2-mercaptoethanol. […]
After all samples were collected, the level of GM-CSF in the supernatant was measured by Quantikine ELISA (R & D Systems, Minneapolis, Minn.) according to the manufacturer's instructions.

In the case of “Asp-Arg-Val-Tyr-Ile-His-Pro-Phe (DRVYIHPF; printed: Asp-Arg-Val-Tyr-Ile-His-Pro-Phe) [AII, octapeptide present in humans and other species; known pressor agent, commercially available]”, the “affinity for AT2 relative to AT1” value (AT2 receptor) is given as 100 times, the thymidine incorporation (human PBMC) is given as “no increase” and the “production of GM-CSF” value [1] is given as “induced an increase”.
